Test: xn = mol fraction of the nth substance listed
Details: Liquid

CCO [ethanol] + O
Details	mass density [kg/m3]
323.15 K, 40000 kPa, x1 = 0.0801	971.4
323.15 K, 40000 kPa, x1 = 0.084	970.9
323.15 K, 40000 kPa, x1 = 0.0879	969.2
323.15 K, 40000 kPa, x1 = 0.0926	967.6
323.15 K, 40000 kPa, x1 = 0.0958	966.5
323.15 K, 40000 kPa, x1 = 0.1006	964.9
323.15 K, 40000 kPa, x1 = 0.1111	961.3
323.15 K, 40000 kPa, x1 = 0.1225	957.4
323.15 K, 40000 kPa, x1 = 0.1296	955.2
323.15 K, 40000 kPa, x1 = 0.1402	951.7
323.15 K, 40000 kPa, x1 = 0.151	948.2
323.15 K, 40000 kPa, x1 = 0.1601	945.3
323.15 K, 40000 kPa, x1 = 0.1703	942
323.15 K, 40000 kPa, x1 = 0.18	938.9
323.15 K, 40000 kPa, x1 = 0.1903	935.8
323.15 K, 40000 kPa, x1 = 0.1996	932.9
323.15 K, 40000 kPa, x1 = 0.2269	924.7
323.15 K, 40000 kPa, x1 = 0.2502	918.2
323.15 K, 40000 kPa, x1 = 0.2745	911.5
323.15 K, 40000 kPa, x1 = 0.3009	904.8
323.15 K, 40000 kPa, x1 = 0.35	892.7
323.15 K, 40000 kPa, x1 = 0.4034	881
323.15 K, 40000 kPa, x1 = 0.4501	871.3
323.15 K, 40000 kPa, x1 = 0.498	862.6
323.15 K, 40000 kPa, x1 = 0.5501	853.6
323.15 K, 40000 kPa, x1 = 0.5998	845.8
323.15 K, 40000 kPa, x1 = 0.6489	838.5
323.15 K, 40000 kPa, x1 = 0.6967	831.9
323.15 K, 40000 kPa, x1 = 0.7475	825.5
323.15 K, 40000 kPa, x1 = 0.7996	819.1
323.15 K, 40000 kPa, x1 = 0.8484	813.6
323.15 K, 40000 kPa, x1 = 0.8993	808
323.15 K, 40000 kPa, x1 = 0.9503	802.8
323.15 K, 40000 kPa, x1 = 1	797.7
348.15 K, 100 kPa, x1 = 0.003	973.1
348.15 K, 100 kPa, x1 = 0.0042	971.9
348.15 K, 100 kPa, x1 = 0.0082	970.7
348.15 K, 100 kPa, x1 = 0.0119	969.1
348.15 K, 100 kPa, x1 = 0.0158	966.6
348.15 K, 100 kPa, x1 = 0.0184	965.4
348.15 K, 100 kPa, x1 = 0.0219	963.9
348.15 K, 100 kPa, x1 = 0.0255	962
348.15 K, 100 kPa, x1 = 0.0279	960.4
348.15 K, 100 kPa, x1 = 0.0315	959.4
348.15 K, 100 kPa, x1 = 0.0366	956.7
348.15 K, 100 kPa, x1 = 0.0392	955.3
348.15 K, 100 kPa, x1 = 0.0439	953.5
348.15 K, 100 kPa, x1 = 0.0483	951.2
348.15 K, 100 kPa, x1 = 0.0516	950.2
348.15 K, 100 kPa, x1 = 0.0559	948.8
348.15 K, 100 kPa, x1 = 0.06	946.9
348.15 K, 100 kPa, x1 = 0.0652	944.8
348.15 K, 100 kPa, x1 = 0.0679	943.7
348.15 K, 100 kPa, x1 = 0.0722	941.5
348.15 K, 100 kPa, x1 = 0.0801	938.1
348.15 K, 100 kPa, x1 = 0.084	937.5
348.15 K, 100 kPa, x1 = 0.0879	935.3
348.15 K, 100 kPa, x1 = 0.0926	933.6
348.15 K, 100 kPa, x1 = 0.0958	932.2
348.15 K, 100 kPa, x1 = 0.1006	930.2
348.15 K, 100 kPa, x1 = 0.1111	925.9
348.15 K, 100 kPa, x1 = 0.1225	921.5
348.15 K, 100 kPa, x1 = 0.1296	918.7
348.15 K, 100 kPa, x1 = 0.1402	914.6
348.15 K, 100 kPa, x1 = 0.151	910.4
348.15 K, 100 kPa, x1 = 0.1601	906.9
348.15 K, 100 kPa, x1 = 0.1703	903.1
348.15 K, 100 kPa, x1 = 0.18	899.5
348.15 K, 100 kPa, x1 = 0.1903	895.8
348.15 K, 100 kPa, x1 = 0.1996	892.6
348.15 K, 100 kPa, x1 = 0.2269	883.1
348.15 K, 100 kPa, x1 = 0.2502	875.6
348.15 K, 100 kPa, x1 = 0.2745	868
348.15 K, 100 kPa, x1 = 0.3009	860.4
348.15 K, 100 kPa, x1 = 0.35	846.7
348.15 K, 100 kPa, x1 = 0.4034	833.4
348.15 K, 100 kPa, x1 = 0.4501	822.7
348.15 K, 100 kPa, x1 = 0.498	812.7
348.15 K, 100 kPa, x1 = 0.5501	802.6
348.15 K, 100 kPa, x1 = 0.5998	793.8
348.15 K, 100 kPa, x1 = 0.6489	785.6
348.15 K, 100 kPa, x1 = 0.6967	778.2
348.15 K, 100 kPa, x1 = 0.7475	770.9
348.15 K, 100 kPa, x1 = 0.7996	763.9
348.15 K, 100 kPa, x1 = 0.8484	757.6
348.15 K, 100 kPa, x1 = 0.8993	751.5
348.15 K, 100 kPa, x1 = 0.9503	745.7
348.15 K, 100 kPa, x1 = 1	739.4
348.15 K, 10000 kPa, x1 = 0.003	977.5
348.15 K, 10000 kPa, x1 = 0.0042	976.3
348.15 K, 10000 kPa, x1 = 0.0082	975
348.15 K, 10000 kPa, x1 = 0.0119	973.4
348.15 K, 10000 kPa, x1 = 0.0158	971
348.15 K, 10000 kPa, x1 = 0.0184	969.6
348.15 K, 10000 kPa, x1 = 0.0219	968.2
348.15 K, 10000 kPa, x1 = 0.0255	966.4
348.15 K, 10000 kPa, x1 = 0.0279	964.8
348.15 K, 10000 kPa, x1 = 0.0315	963.8
348.15 K, 10000 kPa, x1 = 0.0366	961
348.15 K, 10000 kPa, x1 = 0.0392	959.6
348.15 K, 10000 kPa, x1 = 0.0439	957.8

From the NIST ThermoML archive (doi:10.1016/j.fluid.2004.11.019)
